Article PMC9698483, “Berbamine Reduces Chloroquine-Induced Itch in Mice through Inhibition of MrgprX1” (International Journal of Molecular Sciences, 2022)

Assays:
MrgprX1 or MrgprA3 = test system: MrgprX1 or MrgprA3; parameters: method as in PMID 16510108, PMID 32536619; conditions: read-out: IC50 (potency as antagonist); cited from earlier work
histamine-induced itch = test system: histamine-induced itch; parameters: method as in PMID 16510108, PMID 32536619, PMID 35066892; conditions: cited from earlier work
CQ-induced itch = test system: CQ-induced itch; parameters: method as in PMID 16510108, PMID 32536619, PMID 35066892; conditions: cited from earlier work
PAR2 = target: T1, PAR2 (Homo sapiens, UniProt P55085); experiment: PAR2-AP-induced activation of PAR2 in HT29 cells (calcium); format: cell-based; conditions: 30 μM compound, 10 min prior to 30 μM PAR2-AP
T1 construct: endogenous in cells; host or cells: HT29
T1 sequence (P55085 26-397): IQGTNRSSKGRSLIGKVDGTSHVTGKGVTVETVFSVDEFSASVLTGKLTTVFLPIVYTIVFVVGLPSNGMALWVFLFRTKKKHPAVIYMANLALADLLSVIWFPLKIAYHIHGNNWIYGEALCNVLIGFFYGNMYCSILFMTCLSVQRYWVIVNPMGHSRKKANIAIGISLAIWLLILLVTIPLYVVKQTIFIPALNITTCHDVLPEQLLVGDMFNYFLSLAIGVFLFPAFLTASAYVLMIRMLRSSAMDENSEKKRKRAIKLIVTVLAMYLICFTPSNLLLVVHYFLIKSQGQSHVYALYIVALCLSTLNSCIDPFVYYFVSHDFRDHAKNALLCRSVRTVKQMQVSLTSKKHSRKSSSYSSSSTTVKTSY
Experimental: (§1) To investigate the effect of berbamine on other pruritogenic GPCRs, we observed the effect of berbamine on histamine H1 receptor (H1R), histamine H4 receptor (H4R), MrgprC11, MrgprX4, PAR2, and TGR5.
(§2) Figure 3 Effects of berbamine on the activity of other pruritogenic GPCRs: (A,B) Effect of berbamine on histamine 1 receptor (H1R) and histamine 4 receptor (H4R). H1R- and H4R-expressing HEK293T cells were pretreated with 30 μM BBM for 10 min prior to 100 μM histamine treatment. […] (C) Effect of berbamine on PAR2. HT29 cells were pretreated with BBM for 10 min prior to 30 μM PAR2-AP treatment. […] (D) Effect of berbamine on MrgprC11. MrgprC11-expressing HEK293T cells were pretreated with BBM for 10 min prior to 100 μM […] treatment. (E) Effect of berbamine on MrgprX4. MrgprX4-expressing HEK293T cells were pretreated with BBM for 10 min prior to 80 μM DCA treatment. (F) Effect of berbamine on TGR5. TGR5 activity was measured using a YFP fluorescence quenching assay. CHO-K1 cells coexpressing TGR5 and a halide sensor YFP were pretreated with BBM and 80 μM DCA for 10 min prior to I^- treatment. Results were summarized as means ± S.E. (n = 6). NTC, nontransfected cells.
(§3) Intracellular calcium levels were measured using a Fluo-4 NW calcium assay kit (Invitrogen, Carlsbad, CA) as per the manufacturer’s protocol in HEK293T and HT29 cells. […]

[1] = test system: ERK1/2 phosphorylation through MrgprX1; experiment: Immunoblot of ERK1/2 phosphorylation in HEK293T cells expressing MrgprX1; format: cell-based, human; conditions: HEK-MrgprX1 cells
[2] = test system: ERK1/2 phosphorylation through MrgprA3; experiment: Immunoblot of ERK1/2 phosphorylation in HEK293T cells expressing MrgprA3; format: cell-based, mouse; conditions: HEK-MrgprA3 cells
[3] = test system: CQ-resistant strain of P. falciparum; parameters: method as in doi:10.1002/ddr.430300405; conditions: in vitro, compound alone; read-out: IC50 antimalaria effect, CQ-resistant strain; cited from earlier work
MrgprX1 = target: T2, MrgprX1 (Homo sapiens, UniProt Q96LB2); experiment: Intracellular calcium measurement (Fluo-4 NW) in HEK293T cells expressing MrgprX1; format: cell-based
T2 construct: expressed in transfected cells
T2 sequence (Q96LB2 whole entry): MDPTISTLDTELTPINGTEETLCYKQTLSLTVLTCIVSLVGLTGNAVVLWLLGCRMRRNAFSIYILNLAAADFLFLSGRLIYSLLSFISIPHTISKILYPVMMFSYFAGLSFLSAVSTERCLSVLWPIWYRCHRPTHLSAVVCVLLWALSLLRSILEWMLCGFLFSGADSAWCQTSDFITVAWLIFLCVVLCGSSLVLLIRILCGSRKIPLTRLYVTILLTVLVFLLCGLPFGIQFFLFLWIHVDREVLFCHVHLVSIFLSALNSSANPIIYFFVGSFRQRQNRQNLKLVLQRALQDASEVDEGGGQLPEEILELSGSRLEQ
Experimental: To identify novel antagonists of MrgprX1, a cell-based screening assay was established. […] Cells were treated with the indicated concentrations of CQ where the arrow indicates. (B) Summary of dose-response (mean ± S.E., n = 6). (C) Representative Fluo−4 fluorescence traces of MrgprX1 antagonist screening. Cells were treated with 30 μM of the test compounds for 10 min prior to treatment with 300 μM CQ.
Figure 2 Effect of berbamine and closantel on CQ- and ionomycin-induced increases in intracellular calcium levels: (A,B) Intracellular calcium levels were measured using Fluo−4 NW in HEK293T cells expressing MrgprX1. The cells were pretreated with the indicated concentrations of berbamine (BBM) and closantel (CLS) for 10 min prior to treatment with 300 μM CQ. (C) Summary of dose-response (mean ± S.E., n = 6). […] The cells were pretreated with the indicated concentrations of BBM and CLS for 10 min before treatment with ionomycin. (F) Summary of dose–response (mean ± S.E., n = 6).
Intracellular calcium levels were measured using a Fluo-4 NW calcium assay kit (Invitrogen, Carlsbad, CA) as per the manufacturer’s protocol in HEK293T and HT29 cells. Briefly, the cells were plated in a 96-well black-walled plate and incubated with 100 μL of assay buffer including Fluo-4 NW. […] Intracellular calcium increase was induced with the application of the indicated agonist. All modulators were dissolved in DMSO, and cells were treated with a final concentration of 1% DMSO.

MrgprA3 = target: T3, MrgprA3 (Mus musculus, UniProt Q91WW3); experiment: Intracellular calcium measurement in HEK293T cells expressing mouse MrgprA3; format: cell-based; conditions: HEK293T cells overexpressing MrgprA3; read-out: EC50 of MrgprA3 activation
T3 construct: expressed in transfected cells; host or cells: HEK293T
T3 sequence (Q91WW3 1-302): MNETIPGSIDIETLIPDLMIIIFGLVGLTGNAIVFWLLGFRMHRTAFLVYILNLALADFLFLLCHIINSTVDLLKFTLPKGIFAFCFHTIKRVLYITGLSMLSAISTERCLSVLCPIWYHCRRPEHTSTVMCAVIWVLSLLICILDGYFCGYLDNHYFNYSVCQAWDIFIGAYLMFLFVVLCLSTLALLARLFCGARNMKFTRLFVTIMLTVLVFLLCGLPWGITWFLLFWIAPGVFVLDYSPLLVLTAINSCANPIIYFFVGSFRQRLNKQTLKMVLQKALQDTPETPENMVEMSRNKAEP
Experimental: MRGPRA3 and MRGPRC11 are mouse orthologs of human MRGPRX1, and MrgprA3 is also activated by CQ, resulting in CQ-induced pruritus. To investigate the inhibitory effect of berbamine on MrgprA3, we established HEK293T cells overexpressing MrgprA3. […] We further investigated whether berbamine inhibited CQ-induced ERK1/2 phosphorylation in HEK-MrgprA3 cells. Strong and significant ERK1/2 phosphorylation was observed following CQ application, and ERK1/2 phosphorylation peaked 5 min after CQ treatment (Figure 6A,B).
Figure 5 Effect of berbamine on CQ-induced activation of MrgprA3: (A) Intracellular calcium levels were measured in HEK293T cells expressing mouse MrgprA3. Cells were treated with indicated concentrations of CQ. (B) Summary of dose–response (mean ± S.E., n = 6). (C) Cells were pretreated with indicated concentrations of berbamine for 10 min prior to 300 μM CQ treatment. (D) Summary of dose-response (mean ± S.E., n = 6). (E) Representative traces of intracellular calcium responses to BAM8−22 in HEK293T cells expressing MrgprC11. […]
(§4) Intracellular calcium levels were measured using a Fluo-4 NW calcium assay kit (Invitrogen, Carlsbad, CA) as per the manufacturer’s protocol in HEK293T and HT29 cells. […] After 1 h of incubation, Fluo-4 fluorescence was recorded with a FLUOstar Omega microplate reader equipped with syringe pumps and custom Fluo-4 excitation/emission filters (485/538 nm). […]

[4] = target: T4, histamine H1 receptor (H1R) (Homo sapiens, UniProt P35367); experiment: Histamine-induced activation of H1R in H1R-expressing HEK293T cells (calcium); format: cell-based; conditions: 30 μM compound, 10 min prior to 100 μM histamine
T4 construct: expressed in transfected cells; host or cells: HEK293T
T4 sequence (P35367 whole entry, species assumed): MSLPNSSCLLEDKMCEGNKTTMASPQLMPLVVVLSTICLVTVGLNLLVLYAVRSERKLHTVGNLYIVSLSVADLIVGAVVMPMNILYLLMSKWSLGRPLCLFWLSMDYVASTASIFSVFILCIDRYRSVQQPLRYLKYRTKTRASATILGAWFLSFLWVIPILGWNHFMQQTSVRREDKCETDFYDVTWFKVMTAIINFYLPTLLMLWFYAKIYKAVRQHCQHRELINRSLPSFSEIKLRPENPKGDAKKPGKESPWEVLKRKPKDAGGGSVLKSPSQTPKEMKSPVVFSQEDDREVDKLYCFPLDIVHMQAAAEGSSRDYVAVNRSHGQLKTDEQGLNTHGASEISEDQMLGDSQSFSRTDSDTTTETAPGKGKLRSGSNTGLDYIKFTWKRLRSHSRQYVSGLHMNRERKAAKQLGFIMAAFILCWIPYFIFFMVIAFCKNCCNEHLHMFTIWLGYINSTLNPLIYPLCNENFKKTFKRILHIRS
Experimental: as §1, §2, §3

HEK293T cells = experiment: Ionomycin-induced increase in intracellular calcium levels in HEK293T cells; format: cell-based; conditions: 10 μM ionomycin, 10 min pretreatment
Experimental: To investigate whether berbamine and closantel affect calcium signaling pathways, we observed the effects of berbamine and closantel on CQ- and ionomycin-induced increases in intracellular calcium concentrations in HEK-MrgprX1 and HEK293T cells, respectively.
Figure 2 Effect of berbamine and closantel on CQ- and ionomycin-induced increases in intracellular calcium levels: (A,B) Intracellular calcium levels were measured using Fluo−4 NW in HEK293T cells expressing MrgprX1. The cells were pretreated with the indicated concentrations of berbamine (BBM) and closantel (CLS) for 10 min prior to treatment with 300 μM CQ. (C) Summary of dose-response (mean ± S.E., n = 6). (D,E) Intracellular calcium levels were increased with 10 μM ionomycin in HEK239T cells. The cells were pretreated with the indicated concentrations of BBM and CLS for 10 min before treatment with ionomycin. (F) Summary of dose–response (mean ± S.E., n = 6).
as §4

SMILES: CC=CC(=O)N(CC)c1ccccc1C (mixture of isomers) [crotamiton]
- IC50 (MrgprX1 or MrgprA3): 326 µM
- effect on histamine-induced itch (histamine-induced itch): inhibits
- effect on CQ-induced itch (CQ-induced itch): inhibits

SMILES: O=C1O[C@H]2[C@@H]3OC(=O)c4cc(O)c(O)c(O)c4-c4c(O)c(O)c5oc(=O)c6c(c(O)c(O)c7oc(=O)c4c5c76)-c4c(cc(O)c(O)c4O)C(=O)OC[C@H]3OC(O)[C@@H]2OC(=O)c2cc(O)c(O)c(O)c2-c2c1cc(O)c(O)c2O (mixture of isomers) [punicalagin, reference compound]
- effect on PAR2-AP-induced activation of PAR2 (PAR2): significantly blocked

SMILES: CCN(CC)CCCC(C)Nc1ccnc2cc(Cl)ccc12 (stereo not shown) [CQ, Chloroquine]
- time of peak ERK1/2 phosphorylation after treatment [1]: 10 min
- time of peak ERK1/2 phosphorylation after treatment [2]: 5 min
- IC50 [3]: 0.203 ± 0.0707 µM
- EC50 (MrgprX1; HEK-MrgprX1 cells, Fluo-4, read-out: EC50 of increase in intracellular calcium levels (MrgprX1 activation)): 96 µM
- EC50 (MrgprA3): 234 µM

SMILES: CN1CCC(=C2c3ccccc3CCn3c(C=O)cnc32)CC1 [alcaftadine, reference compound]
- effect on histamine-induced activation of H1R [4]: significantly blocked

SMILES: Cc1cc(C(C#N)c2ccc(Cl)cc2)c(Cl)cc1NC(=O)c1cc(I)cc(I)c1O (stereo not shown) [closantel, reference compound]
- inhibition at 30 µM (MrgprX1; HEK-293T, read-out: inhibition of the CQ-induced activation of MrgprX1 (screening)): > 90%
- IC50 (MrgprX1; pretreated 10 min prior to 300 μM CQ, read-out: IC50 of inhibition of CQ-induced MrgprX1 activation): 3.6 µM
- effect on ionomycin-induced increase in intracellular calcium levels (HEK293T cells): inhibited it in a dose-dependent manner
